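Grown in 96-well plates, cells were treated for 48 hours with each compound at five concentrations. Insufficient inhibition: endpoint recorded as highest concentration tested. Here, GI50 denotes the concentration required for 50% inhibition of growth.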 Activity calls are given as the source filed them. No stated cut-off is given here; in the data, active = GI50 up to about 1.1 µM and inactive = higher.
Tests used:
Experiment in all cases: NCI tumour cell line growth inhibition, 48 h
[1] = test system: OVCAR-5
[2] = test system: NCI-H23
[3] = test system: UACC-62
[4] = test system: CCRF-CEM
[5] = test system: SW-620
[6] = test system: HOP-62
[7] = test system: LOX IMVI
[8] = test system: NCI-H226
[9] = test system: SK-MEL-2
[10] = test system: KM12
[11] = test system: UO-31
[12] = test system: COLO 205
[13] = test system: NCI/ADR-RES
[14] = test system: OVCAR-3
[15] = test system: T47D
[16] = test system: MCF7
[17] = test system: HT-29
[18] = test system: SK-MEL-5
[19] = test system: A498
[20] = test system: SF-539

Structure (SMILES)	GI50 [1]	GI50 [2]	GI50 [3]	GI50 [4]	GI50 [5]	GI50 [6]	GI50 [7]	GI50 [8]	GI50 [9]	GI50 [10]	GI50 [11]	GI50 [12]	GI50 [13]	GI50 [14]	GI50 [15]	GI50 [16]	GI50 [17]	GI50 [18]	GI50 [19]	GI50 [20]
CCC1(CC)C(=O)N(C(=O)c2ccccc2)N(C(=O)c2ccc(Cl)cc2)C1=O	> 75 µM (inactive)	> 75 µM (inactive)	> 75 µM (inactive)	12.7 µM (inactive)	36.2 µM (inactive)	> 75 µM (inactive)	3.35 µM (inactive)	> 75 µM (inactive)	> 75 µM (inactive)	> 75 µM (inactive)	> 75 µM (inactive)	> 75 µM (inactive)	> 75 µM (inactive)	> 75 µM (inactive)	> 75 µM (inactive)	> 75 µM (inactive)	58.6 µM (inactive)	> 75 µM (inactive)	–	–
COc1ccc(-c2[nH]c(-c3ccc(OC)cc3)c(-c3ccccn3)c2-c2ccccn2)cc1	> 100 µM (inactive)	42.5 µM (inactive)	34.3 µM (inactive)	35.2 µM (inactive)	36 µM (inactive)	–	24 µM (inactive)	85.7 µM (inactive)	–	38.2 µM (inactive)	33.7 µM (inactive)	26 µM (inactive)	39.5 µM (inactive)	48.9 µM (inactive)	31.5 µM (inactive)	42.7 µM (inactive)	21.6 µM (inactive)	18.3 µM (inactive)	82 µM (inactive)	63.1 µM (inactive)
O=C1CN(c2ccccc2)Cc2nc(Cl)ccc2N1	> 100 µM (inactive)	–	95.5 µM (inactive)	> 100 µM (inactive)	> 100 µM (inactive)	> 100 µM (inactive)	> 100 µM (inactive)	> 100 µM (inactive)	> 100 µM (inactive)	> 100 µM (inactive)	> 100 µM (inactive)	> 100 µM (inactive)	94 µM (inactive)	–	> 100 µM (inactive)	> 100 µM (inactive)	> 100 µM (inactive)	> 100 µM (inactive)	–	> 100 µM (inactive)
CCCNC(=O)Cn1c(-c2ccccc2)cc2ccccc21	> 100 µM (inactive)	48 µM (inactive)	26.4 µM (inactive)	> 100 µM (inactive)	> 100 µM (inactive)	67.3 µM (inactive)	> 100 µM (inactive)	> 100 µM (inactive)	69.8 µM (inactive)	> 100 µM (inactive)	> 100 µM (inactive)	> 100 µM (inactive)	42.4 µM (inactive)	91.8 µM (inactive)	24.2 µM (inactive)	37.5 µM (inactive)	93.8 µM (inactive)	30.5 µM (inactive)	–	> 100 µM (inactive)
CCSc1n/c(=C\c2ccc(N(C)C)cc2)c2nnnn12	> 100 µM (inactive)	> 100 µM (inactive)	> 100 µM (inactive)	> 100 µM (inactive)	> 100 µM (inactive)	> 100 µM (inactive)	–	> 100 µM (inactive)	> 100 µM (inactive)	> 100 µM (inactive)	–	> 100 µM (inactive)	> 100 µM (inactive)	> 100 µM (inactive)	> 100 µM (inactive)	> 100 µM (inactive)	> 100 µM (inactive)	> 100 µM (inactive)	> 100 µM (inactive)	–
COC(=O)CCc1ccc2c(c1)C(=O)CC2	> 100 µM (inactive)	> 100 µM (inactive)	–	> 100 µM (inactive)	> 100 µM (inactive)	> 100 µM (inactive)	> 100 µM (inactive)	–	> 100 µM (inactive)	–	> 100 µM (inactive)	–	> 100 µM (inactive)	> 100 µM (inactive)	> 100 µM (inactive)	> 100 µM (inactive)	> 100 µM (inactive)	> 100 µM (inactive)	> 100 µM (inactive)	> 100 µM (inactive)
CC1(C)CC[C@]2(C(=O)O)CC[C@]3(C)C(=CC[C@@H]4[C@@]5(C)CC[C@H](OC6OC(CO)C(O)C(O)C6O)C(C)(C)[C@@H]5CC[C@]43C)[C@@H]2C1 (some centres not stated)	1.9 µM (inactive)	1.99 µM (inactive)	1.82 µM (inactive)	2.22 µM (inactive)	1.82 µM (inactive)	1.72 µM (inactive)	1.66 µM (inactive)	1.77 µM (inactive)	1.71 µM (inactive)	1.52 µM (inactive)	1.71 µM (inactive)	1.8 µM (inactive)	7.89 µM (inactive)	1.61 µM (inactive)	1.82 µM (inactive)	2.37 µM (inactive)	1.62 µM (inactive)	1.93 µM (inactive)	2.1 µM (inactive)	–
Cc1ccc(-c2cc[n+]3c(n2)oc2ccccc23)cc1	39.7 µM (inactive)	39.9 µM (inactive)	24.2 µM (inactive)	10.3 µM (inactive)	8.93 µM (inactive)	–	35.7 µM (inactive)	–	22.8 µM (inactive)	47.1 µM (inactive)	67.3 µM (inactive)	12.4 µM (inactive)	> 100 µM (inactive)	17.7 µM (inactive)	16.3 µM (inactive)	30.8 µM (inactive)	–	–	19.1 µM (inactive)	25.1 µM (inactive)
COc1cc(OC)c(-c2oc3ccccc3c(=O)c2O)c(OC)c1	> 100 µM (inactive)	17.3 µM (inactive)	2.69 µM (inactive)	6.75 µM (inactive)	3.62 µM (inactive)	–	5.98 µM (inactive)	> 100 µM (inactive)	–	1.99 µM (inactive)	> 62.7 µM (inactive)	3.08 µM (inactive)	1.77 µM (inactive)	2.63 µM (inactive)	4.16 µM (inactive)	6.25 µM (inactive)	3.08 µM (inactive)	3.68 µM (inactive)	3.27 µM (inactive)	8.73 µM (inactive)
CC(C)=CCN=C(N)N	–	> 100 µM (inactive)	> 100 µM (inactive)	> 100 µM (inactive)	> 100 µM (inactive)	–	> 100 µM (inactive)	> 100 µM (inactive)	> 100 µM (inactive)	> 100 µM (inactive)	> 100 µM (inactive)	> 100 µM (inactive)	> 100 µM (inactive)	–	> 100 µM (inactive)	> 100 µM (inactive)	> 100 µM (inactive)	> 100 µM (inactive)	–	> 100 µM (inactive)
[O-][S+](CC1(O)CCCCC1)c1ccccc1 (configuration not stated)	> 100 µM (inactive)	> 100 µM (inactive)	> 100 µM (inactive)	> 100 µM (inactive)	> 100 µM (inactive)	> 100 µM (inactive)	> 100 µM (inactive)	> 100 µM (inactive)	> 100 µM (inactive)	> 100 µM (inactive)	> 100 µM (inactive)	> 100 µM (inactive)	> 100 µM (inactive)	–	> 100 µM (inactive)	> 100 µM (inactive)	> 100 µM (inactive)	> 100 µM (inactive)	–	–
O=C1Nc2ccccc2C(=O)O/C(Cc2ccccc2)=N\c2ccccc21	> 100 µM (inactive)	> 100 µM (inactive)	> 100 µM (inactive)	36.1 µM (inactive)	> 100 µM (inactive)	> 100 µM (inactive)	> 100 µM (inactive)	> 100 µM (inactive)	> 100 µM (inactive)	> 100 µM (inactive)	> 100 µM (inactive)	> 100 µM (inactive)	> 100 µM (inactive)	> 100 µM (inactive)	> 100 µM (inactive)	> 100 µM (inactive)	> 100 µM (inactive)	> 100 µM (inactive)	–	> 100 µM (inactive)
Oc1cccc(-c2cn3cc(C(F)(F)F)ccc3n2)c1	37.2 µM (inactive)	42.7 µM (inactive)	30.7 µM (inactive)	24.1 µM (inactive)	67.8 µM (inactive)	48.8 µM (inactive)	32.6 µM (inactive)	46.9 µM (inactive)	39.5 µM (inactive)	28.6 µM (inactive)	0.338 µM (active)	39.2 µM (inactive)	25.9 µM (inactive)	19.5 µM (inactive)	2.39 µM (inactive)	15.4 µM (inactive)	24.1 µM (inactive)	22.5 µM (inactive)	37.5 µM (inactive)	–
O=C1CC(c2ccc(Cl)cc2)C2(C(=O)NC(=O)NC2=O)C(c2ccc(Cl)cc2)C1 (configuration not stated)	31.3 µM (inactive)	34 µM (inactive)	40.5 µM (inactive)	30.3 µM (inactive)	26.2 µM (inactive)	22.9 µM (inactive)	31.4 µM (inactive)	16 µM (inactive)	15.6 µM (inactive)	36.4 µM (inactive)	25.6 µM (inactive)	20.2 µM (inactive)	26.4 µM (inactive)	24.9 µM (inactive)	17.9 µM (inactive)	22.3 µM (inactive)	23 µM (inactive)	14.5 µM (inactive)	–	28.2 µM (inactive)
C[C@]12O[C@@]3(C)O[C@@]3(C)[C@]3(C)O[C@]3(C)[C@@]1(C)O2	> 100 µM (inactive)	> 100 µM (inactive)	> 100 µM (inactive)	–	–	> 100 µM (inactive)	> 100 µM (inactive)	> 100 µM (inactive)	> 100 µM (inactive)	> 100 µM (inactive)	> 100 µM (inactive)	> 100 µM (inactive)	> 100 µM (inactive)	–	1.22 µM (inactive)	> 100 µM (inactive)	> 100 µM (inactive)	> 100 µM (inactive)	> 100 µM (inactive)	–
COc1ccc(-c2nc(O)c3ccccc3n2)c(OC)c1	> 100 µM (inactive)	> 100 µM (inactive)	> 100 µM (inactive)	> 100 µM (inactive)	> 100 µM (inactive)	> 100 µM (inactive)	–	> 100 µM (inactive)	> 100 µM (inactive)	> 100 µM (inactive)	> 100 µM (inactive)	> 100 µM (inactive)	> 100 µM (inactive)	> 100 µM (inactive)	> 100 µM (inactive)	> 100 µM (inactive)	> 100 µM (inactive)	> 100 µM (inactive)	> 100 µM (inactive)	–
